Test results from patent US20250122183A1 (Pfizer Inc., priority 2023, published 2025).

Key:
[1] = target: KAT7+JADE1+EAF6+ING5 4 protein complex (Homo sapiens (Human), UniProt O95251); test: KAT7 JADE1 assay (SAMDI-MS acetylation of H3 1-21 peptide); type: biochemical; settings: Morrison equation fit; replicate number in parentheses; read-out: KAT7 JADE1 Ki (nM) (replicate number)
KAT6A Full length enzyme = KAT6A Full length enzyme (Homo sapiens (Human), UniProt Q92794); test: KAT6A assay (SAMDI-MS acetylation of H3 1-21 peptide); type: biochemical; settings: Morrison equation fit; replicate number in parentheses; read-out: KAT6A Ki (nM) (replicate number)
Sequence of KAT6A Full length enzyme (Q92794 other isoform, or with tags, fused parts or gaps): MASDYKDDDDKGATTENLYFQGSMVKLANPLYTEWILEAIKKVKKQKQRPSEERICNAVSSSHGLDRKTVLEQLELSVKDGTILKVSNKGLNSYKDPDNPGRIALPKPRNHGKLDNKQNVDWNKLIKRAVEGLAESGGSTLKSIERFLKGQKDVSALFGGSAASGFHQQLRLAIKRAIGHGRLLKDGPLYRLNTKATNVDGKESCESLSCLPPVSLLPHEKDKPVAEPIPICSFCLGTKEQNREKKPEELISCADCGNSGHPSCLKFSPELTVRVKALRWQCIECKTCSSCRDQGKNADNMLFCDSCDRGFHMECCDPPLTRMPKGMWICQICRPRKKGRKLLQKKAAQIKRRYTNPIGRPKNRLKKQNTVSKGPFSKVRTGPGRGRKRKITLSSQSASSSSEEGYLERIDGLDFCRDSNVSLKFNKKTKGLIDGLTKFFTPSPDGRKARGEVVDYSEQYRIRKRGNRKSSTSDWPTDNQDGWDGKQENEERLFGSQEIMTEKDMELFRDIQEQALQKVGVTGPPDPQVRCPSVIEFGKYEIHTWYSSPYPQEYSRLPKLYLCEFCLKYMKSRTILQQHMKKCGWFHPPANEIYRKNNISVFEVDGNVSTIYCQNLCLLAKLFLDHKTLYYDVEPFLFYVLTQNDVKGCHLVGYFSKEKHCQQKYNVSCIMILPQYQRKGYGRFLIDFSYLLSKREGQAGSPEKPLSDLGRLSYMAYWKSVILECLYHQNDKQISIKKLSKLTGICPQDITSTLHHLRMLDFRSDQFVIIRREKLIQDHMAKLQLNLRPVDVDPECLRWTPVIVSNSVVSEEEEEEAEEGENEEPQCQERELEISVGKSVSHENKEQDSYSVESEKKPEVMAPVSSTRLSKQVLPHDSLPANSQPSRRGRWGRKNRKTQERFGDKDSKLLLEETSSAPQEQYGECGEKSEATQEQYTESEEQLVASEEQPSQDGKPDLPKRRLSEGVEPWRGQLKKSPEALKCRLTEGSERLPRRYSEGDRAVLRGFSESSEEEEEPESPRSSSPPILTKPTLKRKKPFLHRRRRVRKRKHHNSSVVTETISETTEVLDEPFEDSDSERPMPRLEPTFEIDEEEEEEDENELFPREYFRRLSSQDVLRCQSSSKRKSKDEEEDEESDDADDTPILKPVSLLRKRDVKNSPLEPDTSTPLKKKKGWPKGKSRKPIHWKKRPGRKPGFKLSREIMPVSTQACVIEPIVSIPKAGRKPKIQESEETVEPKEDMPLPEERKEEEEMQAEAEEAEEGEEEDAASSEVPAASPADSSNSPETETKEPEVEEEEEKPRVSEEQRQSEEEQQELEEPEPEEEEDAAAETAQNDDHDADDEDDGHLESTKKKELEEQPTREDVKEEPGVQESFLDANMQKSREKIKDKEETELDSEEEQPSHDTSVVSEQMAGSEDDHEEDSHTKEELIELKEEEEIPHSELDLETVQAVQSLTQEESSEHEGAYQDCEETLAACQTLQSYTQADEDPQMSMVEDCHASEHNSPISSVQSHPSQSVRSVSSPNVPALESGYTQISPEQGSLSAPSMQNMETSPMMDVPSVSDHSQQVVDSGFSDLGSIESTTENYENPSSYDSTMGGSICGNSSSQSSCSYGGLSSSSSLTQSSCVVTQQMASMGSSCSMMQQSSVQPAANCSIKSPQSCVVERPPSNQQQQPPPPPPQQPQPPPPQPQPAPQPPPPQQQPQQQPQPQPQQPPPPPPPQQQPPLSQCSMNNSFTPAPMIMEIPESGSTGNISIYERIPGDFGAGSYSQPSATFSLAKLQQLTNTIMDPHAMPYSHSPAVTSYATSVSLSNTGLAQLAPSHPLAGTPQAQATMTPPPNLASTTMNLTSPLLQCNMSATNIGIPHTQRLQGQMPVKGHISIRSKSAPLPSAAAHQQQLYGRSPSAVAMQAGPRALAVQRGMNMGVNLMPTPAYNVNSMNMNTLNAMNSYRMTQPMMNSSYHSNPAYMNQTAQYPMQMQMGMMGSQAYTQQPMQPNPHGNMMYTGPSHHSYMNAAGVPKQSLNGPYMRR

Molecule `COc1cc2c(NS(=O)(=O)c3c(OC)cc(C4CN(C5CCOC5)C4)cc3OC)noc2cc1Nc1cc(C2CC2)n[nH]1` (racemic) [Example 187, N-{6-[(3-cyclopropyl-1H-pyrazol-5-yl)amino]-5-methoxy-1,2-benzoxazol-3-yl]-2,6-dimethoxy-4-[1-(oxolan-3-yl)azetidin-3-yl]benzene-1-sulfonamide] has a Ki [1] of 13.1 nM and a Ki (KAT6A Full length enzyme) of 2.2 nM.
`COc1cc2c(NS(=O)(=O)c3c(OC)cc(C4CCCCO4)cc3OC)noc2cc1Nc1cc(C2CC2)n[nH]1` (single isomer, unassigned) [Example 142, N-{6-[(3-cyclopropyl-1 H-pyrazol-5-yl)amino]-5-methoxy-1,2-benzoxazol-3-yl}-2,6-dimethoxy-4-(oxan-2-yl)benzene-1-sulfonamide] gave a Ki [1] of 6.7 nM and a Ki (KAT6A Full length enzyme) of 0.7 nM.
`COc1cc2c(NS(=O)(=O)c3c(OC)cc(C4CCN(C)C4)cc3OC)noc2cc1Nc1cc(C2CC2)n[nH]1` (single isomer, unassigned) [Example 147, N-{6-[(3-cyclopropyl-1 H-pyrazol-5-yl)amino]-5-methoxy-1,2-benzoxazol-3-yl}-2,6-dimethoxy-4-(1-methylpyrrolidin-3-yl)benzene-1-sulfonamide] gave a Ki [1] of 12.1 nM and a Ki (KAT6A Full length enzyme) of 1.6 nM.
`CCN1CCOC(c2cc(OC)c(S(=O)(=O)Nc3noc4cc(Nc5cc(C6CC6)n[nH]5)c(OC)cc34)c(OC)c2)C1` (single isomer, unassigned) [Example 156, N-{6-[(3-cyclopropyl-1 H-pyrazol-5-yl)amino]-5-methoxy-1,2-benzoxazol-3-yl}-4-(4-ethylmorpholin-2-yl)-2,6-dimethoxybenzene-1-sulfonamide] gave a Ki [1] of 4 nM and a Ki (KAT6A Full length enzyme) of 0.8 nM.
Work on `CCN1CCOC(c2cc(OC)c(S(=O)(=O)Nc3noc4cc(Nc5cc(C6CC6)n[nH]5)c(OC)cc34)c(OC)c2)C1` (single isomer, unassigned) [Example 157, N-{6-[(3-cyclopropyl-1 H-pyrazol-5-yl)amino]-5-methoxy-1,2-benzoxazol-3-yl}-4-(4-ethylmorpholin-2-yl)-2,6-dimethoxybenzene-1-sulfonamide] yielded a Ki [1] of 11.6 nM and a Ki (KAT6A Full length enzyme) of 2.5 nM.
For `COc1cc2c(NS(=O)(=O)c3c(OC)cc(C4CCCN([C@@H]5CCOC5)C4)cc3OC)noc2cc1Nc1cc(C2CC2)n[nH]1` (single isomer, unassigned) [Example 158], the Ki [1] was 8.7 nM and the Ki (KAT6A Full length enzyme) was 1.2 nM.
`COc1cc2c(NS(=O)(=O)c3c(OC)cc(C4CCCN([C@@H]5CCOC5)C4)cc3OC)noc2cc1Nc1cc(C2CC2)n[nH]1` (single isomer, unassigned) [Example 159] showed a Ki [1] of 7 nM and a Ki (KAT6A Full length enzyme) of 1.1 nM.
`COc1cc2c(NS(=O)(=O)c3c(OC)cc(C4CCN([C@@H]5CCOC5)C4)cc3OC)noc2cc1Nc1cc(C2CC2)n[nH]1` (single isomer, unassigned) [Example 160] gave a Ki [1] of 6.9 nM and a Ki (KAT6A Full length enzyme) of 1 nM.
`COc1cc2c(NS(=O)(=O)c3c(OC)cc(C4CCN([C@@H]5CCOC5)C4)cc3OC)noc2cc1Nc1cc(C2CC2)n[nH]1` (single isomer, unassigned) [Example 161] was tested, and the Ki [1] was 5.5 nM and the Ki (KAT6A Full length enzyme) was 1.2 nM.
`COc1cc2c(NS(=O)(=O)c3c(OC)cc(C4CCN([C@H]5CCOC5)C4)cc3OC)noc2cc1Nc1cc(C2CC2)n[nH]1` (single isomer, unassigned) [Example 162] showed a Ki [1] of 8.9 nM and a Ki (KAT6A Full length enzyme) of 1.2 nM.
Molecule `COc1cc2c(NS(=O)(=O)c3c(OC)cc(C4CCN([C@H]5CCOC5)C4)cc3OC)noc2cc1Nc1cc(C2CC2)n[nH]1` (single isomer, unassigned) [Example 163] has a Ki [1] of 8.2 nM and a Ki (KAT6A Full length enzyme) of 1.4 nM.
`COc1cc2c(NS(=O)(=O)c3c(OC)cc(C4CCCN4CC(F)F)cc3OC)noc2cc1Nc1cc(C2CC2)n[nH]1` (single isomer, unassigned) [Example 165, N-{6-[(3-cyclopropyl-1H-pyrazol-5-yl)amino]-5-methoxy-1,2-benzoxazol-3-yl}-4-[1-(2,2-difluoroethyl)pyrrolidin-2-yl]-2,6-dimethoxybenzene-1-sulfonamide] showed a Ki [1] of 5 nM and a Ki (KAT6A Full length enzyme) of 1.4 nM.
Molecule `COc1cc2c(NS(=O)(=O)c3c(OC)cc(C4CCCN4CC(F)F)cc3OC)noc2cc1Nc1cc(C2CC2)n[nH]1` (single isomer, unassigned) [Example 166, N-{6-[(3-cyclopropyl-1 H-pyrazol-5-yl)amino]-5-methoxy-1,2-benzoxazol-3-yl}-4-[1-(2,2-difluoroethyl)pyrrolidin-2-yl]-2,6-dimethoxybenzene-1-sulfonamide] has a Ki [1] of 8.5 nM and a Ki (KAT6A Full length enzyme) of 1.6 nM.
With `COc1cc2c(NS(=O)(=O)c3c(OC)cc(C4CCCN(CC(F)F)C4)cc3OC)noc2cc1Nc1cc(C2CC2)n[nH]1` (single isomer, unassigned) [Example 167, N-{6-[(3-cyclopropyl-1 H-pyrazol-5-yl)amino]-5-methoxy-1,2-benzoxazol-3-yl}-4-[1-(2,2-difluoroethyl)piperidin-3-yl]-2,6-dimethoxybenzene-1-sulfonamide] the Ki [1] was 4 nM and the Ki (KAT6A Full length enzyme) was 0.9 nM.
`COc1cc2c(NS(=O)(=O)c3c(OC)cc(C4CCCN(CC(F)F)C4)cc3OC)noc2cc1Nc1cc(C2CC2)n[nH]1` (single isomer, unassigned) [Example 168, N-{6-[(3-cyclopropyl-1 H-pyrazol-5-yl)amino]-5-methoxy-1,2-benzoxazol-3-yl}-4-[1-(2,2-difluoroethyl)piperidin-3-yl]-2,6-dimethoxybenzene-1-sulfonamide] gave a Ki [1] of 2.7 nM and a Ki (KAT6A Full length enzyme) of 0.8 nM.
Work on `COc1cc2c(NS(=O)(=O)c3c(OC)cc(C4CCCN(CC(F)(F)F)C4)cc3OC)noc2cc1Nc1cc(C2CC2)n[nH]1` (single isomer, unassigned) [Example 169, N-{6-[(3-cyclopropyl-1 H-pyrazol-5-yl)amino]-5-methoxy-1,2-benzoxazol-3-yl}-2,6-dimethoxy-4-[1-(2,2,2-trifluoroethyl)piperidin-3-yl]benzene-1-sulfonamide] yielded a Ki (KAT6A Full length enzyme) of 0.5 nM.
In the case of `COc1cc2c(NS(=O)(=O)c3c(OC)cc(C4CCCN(CC(F)(F)F)C4)cc3OC)noc2cc1Nc1cc(C2CC2)n[nH]1` (single isomer, unassigned) [Example 170, N-{6-[(3-cyclopropyl-1 H-pyrazol-5-yl)amino]-5-methoxy-1,2-benzoxazol-3-yl}-2,6-dimethoxy-4-[1-(2,2,2-trifluoroethyl)piperidin-3-yl]benzene-1-sulfonamide], the Ki (KAT6A Full length enzyme) is reported as 0.4 nM.
`COc1cc2c(NS(=O)(=O)c3c(OC)cc(C4CCCCN4C)cc3OC)noc2cc1Nc1cc(C2CC2)n[nH]1` (single isomer, unassigned) [Example 171, N-{6-[(3-cyclopropyl-1 H-pyrazol-5-yl)amino]-5-methoxy-1,2-benzoxazol-3-yl}-2,6-dimethoxy-4-(1-methylpiperidin-2-yl)benzene-1-sulfonamide] was tested, and the Ki [1] was 8.4 nM and the Ki (KAT6A Full length enzyme) was 2.1 nM.
`COc1cc2c(NS(=O)(=O)c3c(OC)cc(C4CCCCN4C)cc3OC)noc2cc1Nc1cc(C2CC2)n[nH]1` (single isomer, unassigned) [Example 172, N-{6-[(3-cyclopropyl-1 H-pyrazol-5-yl)amino]-5-methoxy-1,2-benzoxazol-3-yl}-2,6-dimethoxy-4-(1-methylpiperidin-2-yl)benzene-1-sulfonamide] gave a Ki [1] of 34.1 nM and a Ki (KAT6A Full length enzyme) of 4.4 nM.
`CCN1CCCCC1c1cc(OC)c(S(=O)(=O)Nc2noc3cc(Nc4cc(C5CC5)n[nH]4)c(OC)cc23)c(OC)c1` (single isomer, unassigned) [Example 173, N-{6-[(3-cyclopropyl-1 H-pyrazol-5-yl)amino]-5-methoxy-1,2-benzoxazol-3-yl}-4-(1-ethylpiperidin-2-yl)-2,6-dimethoxybenzene-1-sulfonamide] showed a Ki [1] of 114 nM and a Ki (KAT6A Full length enzyme) of 7.5 nM.
`CCN1CCCCC1c1cc(OC)c(S(=O)(=O)Nc2noc3cc(Nc4cc(C5CC5)n[nH]4)c(OC)cc23)c(OC)c1` (single isomer, unassigned) [Example 174, N-{6-[(3-cyclopropyl-1 H-pyrazol-5-yl)amino]-5-methoxy-1,2-benzoxazol-3-yl}-4-(1-ethylpiperidin-2-yl)-2,6-dimethoxybenzene-1-sulfonamide] showed a Ki [1] of 27.3 nM and a Ki (KAT6A Full length enzyme) of 4.4 nM.
`COc1cc2c(NS(=O)(=O)c3c(OC)cc(C4CN(C)CCC4(F)F)cc3OC)noc2cc1Nc1cc(C2CC2)n[nH]1` (single isomer, unassigned) [Example 175, N-{6-[(3-cyclopropyl-1 H-pyrazol-5-yl)amino]-5-methoxy-1,2-benzoxazol-3-yl}-4-(4,4-difluoro-1-methylpiperidin-3-yl)-2,6-dimethoxybenzene-1-sulfonamide] gave a Ki [1] of 1 nM and a Ki (KAT6A Full length enzyme) of 0.4 nM.
`COc1cc2c(NS(=O)(=O)c3c(OC)cc(C4COCCN4C)cc3OC)noc2cc1Nc1cc(C2CC2)[nH]n1` (single isomer, unassigned) [Example 179, N-{6-[(5-cyclopropyl-1 H-pyrazol-3-yl)amino]-5-methoxy-1,2-benzoxazol-3-yl}-2,6-dimethoxy-4-(4-methylmorpholin-3-yl)benzene-1-sulfonamide] gave a Ki [1] of 8.6 nM and a Ki (KAT6A Full length enzyme) of 1 nM.
In the case of `CCN1CCCC1c1cc(OC)c(S(=O)(=O)Nc2noc3cc(Nc4cc(C5CC5)[nH]n4)c(OC)cc23)c(OC)c1` (single isomer, unassigned) [Example 190, N-{6-[(5-cyclopropyl-1 H-pyrazol-3-yl)amino]-5-methoxy-1,2-benzoxazol-3-yl}-4-(1-ethylpyrrolidin-2-yl)-2,6-dimethoxybenzene-1-sulfonamide], the Ki [1] is reported as 54.5 nM and the Ki (KAT6A Full length enzyme) is reported as 5.6 nM.
For `CCN1CCCC1c1cc(OC)c(S(=O)(=O)Nc2noc3cc(Nc4cc(C5CC5)[nH]n4)c(OC)cc23)c(OC)c1` (single isomer, unassigned) [Example 191, N-{6-[(5-cyclopropyl-1 H-pyrazol-3-yl)amino]-5-methoxy-1,2-benzoxazol-3-yl}-4-(1-ethylpyrrolidin-2-yl)-2,6-dimethoxybenzene-1-sulfonamide], the Ki [1] was 15.4 nM and the Ki (KAT6A Full length enzyme) was 2.3 nM.
In the case of `COc1cc2c(NS(=O)(=O)c3c(OC)cccc3OC)noc2cc1Nc1cc(C2CC2)nn1C` [Example 48, N-{6-[(3-cyclopropyl-1-methyl-1H-pyrazol-5-yl)amino]-5-methoxy-1,2-benzoxazol-3-yl}-2,6-dimethoxybenzene-1-sulfonamide], the Ki [1] is reported as > 12500 nM.
